Here are results for 48 compounds from paper PMC11995724, “Antibiotic target discovery by integrated phenotypic and activity-based profiling of electrophilic fragments” (Cell chemical biology, 2025).

Structures can show the parent of a compound that is named as a salt.

The series in a line: in vitro. The note with it: human, hek293t cells.
As a reminder, the viability is a read-out of living cells in per cent, often relative to untreated cells. For `COc1ccc2ccccc2c1-c1cc(CNC(=O)C(C)Cl)on1` (stereo not drawn) [7-E08, 2-chloro-N-{[3-(2-methoxynaphthalen-1-yl)-1,2-oxazol-5-yl]methyl}propanamide], the viability at 48 h, 25 µM amounted to 87.9%. As for `Cc1csc(CN(CC2CCCO2)C(=O)C(C)Cl)n1` (stereo not drawn) [7-E09, 2-chloro-N-[(4-methyl-1,3-thiazol-2-yl)methyl]-N-[(oxolan-2-yl)methyl]propanamide], the viability at 48 h, 25 µM amounted to 94.1%. As for `Cc1noc(C23CC(CN2C(=O)C(C)Cl)C3)n1` (stereo not drawn) [7-E10, 2-chloro-1-[1-(3-methyl-1,2,4-oxadiazol-5-yl)-2-azabicyclo[2.1.1]hexan-2-yl]propan-1-one], the figure is 93.2%. For `CC(Cl)C(=O)N1CCn2cccc2C1c1ccccc1` (stereo not drawn) [7-E11, 2-chloro-1-{1-phenyl-1H,2H,3H,4H-pyrrolo[1,2-a]pyrazin-2-yl}propan-1-one], the viability at 48 h, 25 µM stood at 97.1%. `CC(Cl)C(=O)NC(Cc1ccccc1)c1ncco1` (stereo not drawn) [7-E12, 2-chloro-N-[1-(1,3-oxazol-2-yl)-2-phenylethyl]propanamide]: the viability at 48 h, 25 µM came out at 84.4%.

For the compound `CC(Cl)C(=O)NC1CCN(CC(=O)Nc2ccccc2)CC1` (stereo not drawn) [7-E13, 2-chloro-N-{1-[(phenylcarbamoyl)methyl]piperidin-4-yl}propanamide], the viability at 48 h, 25 µM was 85.2%. Next, `CC(Cl)C(=O)N(Cc1cccs1)[C@@H]1C=C[C@H](CO)C1` (stereo partly drawn) [7-E14, 2-chloro-N-[(1S,4R)-4-(hydroxymethyl)cyclopent-2-en-1-yl]-N-[(thiophen-2-yl)methyl]propanamide]: 87.9%; `CC(Cl)C(=O)NC(C)(C)c1cccc(Cl)c1F` (stereo not drawn) [7-E15, 2-chloro-N-[2-(3-chloro-2-fluorophenyl)propan-2-yl]propanamide]: 91.2%; `CC(Cl)C(=O)NC1c2cc(F)ccc2CC1C` (stereo not drawn) [7-E16, 2-chloro-N-(6-fluoro-2-methyl-2,3-dihydro-1H-inden-1-yl)propanamide]: 74.7%. Next, `CC(Cl)C(=O)NCCC1(C)OCCO1` (stereo not drawn) [7-E17, 2-chloro-N-[2-(2-methyl-1,3-dioxolan-2-yl)ethyl]propanamide]: 82.4%; `CC(Cl)C(=O)N1CCC(N(C)Cc2cc(=O)[nH]c(N(C)C)n2)C1` (stereo not drawn) [7-E18, 6-({[1-(2-chloropropanoyl)pyrrolidin-3-yl](methyl)amino}methyl)-2-(dimethylamino)-3,4-dihydropyrimidin-4-one]: 72.3%. Next, `CC(Cl)C(=O)N1CCCC1Cc1cccc(F)c1F` (stereo not drawn) [7-E19, 2-chloro-1-{2-[(2,3-difluorophenyl)methyl]pyrrolidin-1-yl}propan-1-one]: 61.3%; `CC(Cl)C(=O)N1CCN(C(=O)Cc2cccc(Cl)c2)C(C)C1` (stereo not drawn) [7-E20, 2-chloro-1-{4-[2-(3-chlorophenyl)acetyl]-3-methylpiperazin-1-yl}propan-1-one]: 65.1%; `CC(Cl)C(=O)NCCNC(=O)c1ccoc1` (stereo not drawn) [7-E21, 2-chloro-N-{2-[(furan-3-yl)formamido]ethyl}propanamide]: 90.5%. `CC1CN(C(=O)c2ccc(NC(=O)C(C)Cl)cc2)CC(C)O1` (stereo not drawn) [7-E22, 2-chloro-N-[4-(2,6-dimethylmorpholine-4-carbonyl)phenyl]propanamide]: the viability at 48 h, 25 µM was 79.1%. Next, `O=C(CCl)NC(c1ccccc1)C1CC1c1ccncc1` (stereo not drawn) [7-F03, 2-chloro-N-{phenyl[2-(pyridin-4-yl)cyclopropyl]methyl}acetamide hydrochloride]: 0.921%; `Cc1cccc(Cl)c1CCCNC(=O)CCl` [7-F04, 2-chloro-N-[3-(2-chloro-6-methylphenyl)propyl]acetamide]: 0.614%; `CC(Cl)C(=O)NCCN(C)S(=O)(=O)c1cccs1` (stereo not drawn) [7-F05, 2-chloro-N-[2-(N-methylthiophene-2-sulfonamido)ethyl]propanamide]: 97.9%. Next, `CC(CO)(Cc1ccc(F)cc1)NC(=O)CCl` (stereo not drawn) [7-F06, 2-chloro-N-{2-[(4-fluorophenyl)methyl]-1-hydroxypropan-2-yl}acetamide]: 3.71%; `CCC1CN(CCn2cccn2)CCN1C(=O)C(C)Cl` (stereo not drawn) [7-F07, 2-chloro-1-{2-ethyl-4-[2-(1H-pyrazol-1-yl)ethyl]piperazin-1-yl}propan-1-one]: 98.7%; `Cc1nc(C(NC(=O)CCl)c2ccccc2)no1` (stereo not drawn) [7-F08, 2-chloro-N-[(5-methyl-1,2,4-oxadiazol-3-yl)(phenyl)methyl]acetamide]: 1.04%. `CC(Cl)C(=O)NCCc1nc(C2CCCCC2)cs1` (stereo not drawn) [7-F09, 2-chloro-N-[2-(4-cyclohexyl-1,3-thiazol-2-yl)ethyl]propanamide]: the viability at 48 h, 25 µM was determined as 84.8%. Next, `O=C(CCl)NC1COc2ncccc21` (stereo not drawn) [7-F10, 2-chloro-N-{2H,3H-furo[2,3-b]pyridin-3-yl}acetamide]: 53.7%; `CC(Cl)C(=O)N1Cc2ccccc2OCC1C` (stereo not drawn) [7-F11, 2-chloro-1-(3-methyl-2,3,4,5-tetrahydro-1,4-benzoxazepin-4-yl)propan-1-one]: 86.6%. As for `Cc1nc2n(n1)CCCC2NC(=O)CCl` (stereo not drawn) [7-F12, 2-chloro-N-{2-methyl-5H,6H,7H,8H-[1,2,4]triazolo[1,5-a]pyridin-8-yl}acetamide], the figure is 58.1%. In the case of `CC(Cl)C(=O)N1CCN(Cc2cnn(-c3ccccc3)c2)CC1` (stereo not drawn) [7-F13, 2-chloro-1-{4-[(1-phenyl-1H-pyrazol-4-yl)methyl]piperazin-1-yl}propan-1-one], the viability at 48 h, 25 µM stood at 93%. Take `CC(c1ccc(C(F)(F)F)c(Cl)c1)N(C)C(=O)CCl` (stereo not drawn) [7-F14, 2-chloro-N-{1-[3-chloro-4-(trifluoromethyl)phenyl]ethyl}-N-methylacetamide]: the viability at 48 h, 25 µM was 0.626%. Turning to `Cc1cc(C)n(C2CN(C(=O)C(C)Cl)C2)n1` (stereo not drawn) [7-F15, 2-chloro-1-[3-(3,5-dimethyl-1H-pyrazol-1-yl)azetidin-1-yl]propan-1-one], the viability at 48 h, 25 µM amounted to 85.3%.

As to `C[C@@H](NC(=O)CCl)c1cnnn1C` [7-F16, 2-chloro-N-[(1R)-1-(1-methyl-1H-1,2,3-triazol-5-yl)ethyl]acetamide], the viability at 48 h, 25 µM was 44.8%. As for `CC(Cl)C(=O)NC1CCCCC1n1cccn1` (stereo not drawn) [7-F17, 2-chloro-N-[2-(1H-pyrazol-1-yl)cyclohexyl]propanamide], the figure is 97.9%; as for `Cc1ccc(C)n1C1CCC(NC(=O)CCl)CC1` (stereo not drawn) [7-F18, 2-chloro-N-[4-(2,5-dimethyl-1H-pyrrol-1-yl)cyclohexyl]acetamide], 106%; as for `CC(Cl)C(=O)N1CCCC1c1nc(N(C)C)no1` (stereo not drawn) [7-F19, 2-chloro-1-{2-[3-(dimethylamino)-1,2,4-oxadiazol-5-yl]pyrrolidin-1-yl}propan-1-one], 77.6%. Next, `O=C(CCl)NC1CCCc2c1cnn2Cc1ccccc1` (stereo not drawn) [7-F20, N-(1-benzyl-4,5,6,7-tetrahydro-1H-indazol-4-yl)-2-chloroacetamide]: 0.873%. Next, `Cc1nn(C)c(NC(=O)C(C)Cl)c1-c1ccccc1` (stereo not drawn) [7-F21, 2-chloro-N-(1,3-dimethyl-4-phenyl-1H-pyrazol-5-yl)propanamide]: 84.5%; `O=C(CCl)NC(c1cc(F)ccc1F)C(F)F` (stereo not drawn) [7-F22, 2-chloro-N-[1-(2,5-difluorophenyl)-2,2-difluoroethyl]acetamide]: 0.697%. With `CNC(=O)c1cc(OC2CCN(C(=O)C(C)Cl)C2)ccn1` (stereo not drawn) [7-G03, 4-{[1-(2-chloropropanoyl)pyrrolidin-3-yl]oxy}-N-methylpyridine-2-carboxamide], the viability at 48 h, 25 µM worked out at 111%. Next, `Cc1noc(C2CN(C(=O)C(C)Cl)C2)n1` (stereo not drawn) [7-G04, 2-chloro-1-[3-(3-methyl-1,2,4-oxadiazol-5-yl)azetidin-1-yl]propan-1-one]: 92.2%; `CC(Cl)C(=O)N1CC(S(=O)(=O)Nc2ccccc2)C1` (stereo not drawn) [7-G05, 1-(2-chloropropanoyl)-N-phenylazetidine-3-sulfonamide]: 102%. Take `CC(Cl)C(=O)N1CCCN2c3ccccc3CC2C1` (stereo not drawn) [7-G06, 1-{1H,2H,3H,4H,5H,11H,11aH-[1,4]diazepino[1,2-a]indol-2-yl}-2-chloropropan-1-one]: the viability at 48 h, 25 µM was found to be 96.3%. Next, `CCOc1cccc(N2CCN(C(=O)C(C)Cl)CC2)n1` (stereo not drawn) [7-G07, 2-chloro-1-[4-(6-ethoxypyridin-2-yl)piperazin-1-yl]propan-1-one]: 83.5%; `CCn1cc(C2CN(C(=O)C(C)Cl)CCO2)cn1` (stereo not drawn) [7-G08, 2-chloro-1-[2-(1-ethyl-1H-pyrazol-4-yl)morpholin-4-yl]propan-1-one]: 89.1%. Consider `CC(Cl)C(=O)NC(C)c1ccc(C(F)(F)F)nc1Cl` (stereo not drawn) [7-G09, 2-chloro-N-{1-[2-chloro-6-(trifluoromethyl)pyridin-3-yl]ethyl}propanamide], for which the viability at 48 h, 25 µM was 83.5%. As to `CC(Cl)C(=O)N1CCN(c2nccc3sccc23)CC1` (stereo not drawn) [7-G10, 2-chloro-1-(4-{thieno[3,2-c]pyridin-4-yl}piperazin-1-yl)propan-1-one], the viability at 48 h, 25 µM was 83.5%.

In the case of `CC(Cl)C(=O)N(Cc1ccsc1)C1CC1` (stereo not drawn) [7-G11, 2-chloro-N-cyclopropyl-N-[(thiophen-3-yl)methyl]propanamide], the viability at 48 h, 25 µM was found to be 86.9%. As for `CC1CCCN(C(=O)C(NC(=O)C(C)Cl)c2cnn(C)c2)C1` (stereo not drawn) [7-G12, 2-chloro-N-[1-(1-methyl-1H-pyrazol-4-yl)-2-(3-methylpiperidin-1-yl)-2-oxoethyl]propanamide], the figure is 81.1%. As for `CC(Cl)C(=O)NC1CCCc2c1cnn2Cc1ccccc1` (stereo not drawn) [7-G13, N-(1-benzyl-4,5,6,7-tetrahydro-1H-indazol-4-yl)-2-chloropropanamide], the figure is 87.2%; as for `CC(Cl)C(=O)N(c1ccccc1)C1CCOC1` (stereo not drawn) [7-G14, 2-chloro-N-(oxolan-3-yl)-N-phenylpropanamide], 64.4%; as for `CC(Cl)C(=O)NCC(c1ccccc1)c1nnc[nH]1` (stereo not drawn) [7-G15, 2-chloro-N-[2-phenyl-2-(4H-1,2,4-triazol-3-yl)ethyl]propanamide], 114%.
